For this assay, the target named is T1, CETP (Homo sapiens, UniProt P11597).
T1 construct: Human plasma (50 uL), assay buffer (35 uL) and test compound; tissue New Drug Development Research Center, Inc; host or cells: human EDTA plasma from healthy men
T1 sequence (P11597 18-493): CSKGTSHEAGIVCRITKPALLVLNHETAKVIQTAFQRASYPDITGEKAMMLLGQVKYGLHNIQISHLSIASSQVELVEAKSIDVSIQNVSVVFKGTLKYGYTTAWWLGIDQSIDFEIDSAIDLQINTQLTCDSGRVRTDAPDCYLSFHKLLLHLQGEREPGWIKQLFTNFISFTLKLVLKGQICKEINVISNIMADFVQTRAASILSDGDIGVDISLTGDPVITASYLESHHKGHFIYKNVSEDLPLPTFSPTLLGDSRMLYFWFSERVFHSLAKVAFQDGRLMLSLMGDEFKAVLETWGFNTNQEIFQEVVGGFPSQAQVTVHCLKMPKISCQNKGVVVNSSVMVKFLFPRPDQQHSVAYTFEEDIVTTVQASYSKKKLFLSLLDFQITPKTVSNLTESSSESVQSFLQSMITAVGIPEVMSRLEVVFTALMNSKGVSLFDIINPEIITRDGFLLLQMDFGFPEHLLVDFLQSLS
As to the kind of experiment: In vitro CETP activity assay in human plasma. The conditions noted are these: Table 1 Inhibitory Activity of Compounds. In kind it is biochemical. As to the method: The cDNA of human pro-apoAI (NCBI accession number: NM_000039) is cloned from human liver Quick-Clone™ cDNA (Clontech, CA) and inserted to a pET28a vector (Novagen, Germany) for bacterial expression. Expressed protein as a fusion protein with 6×His-tag at N-terminus in BL-21 Gold (DE3) (Strategene, CA) is purified using HiTrap Chelating (GE Healthcare, CT).
Pro-apoAI containing microemulsion as a donor particle is prepared following previous reports (J. Biol. Chem., 280:14918-22). Glyceryl trioleate (62.5 ng, Sigma, Mo.), 3-sn-phosphatidylcholine (583 ng, Wako Pure Chemical Industries, Japan), and cholesteryl BODIPY® FL C12 (250 ng, Invitrogen, CA) are dissolved in 1 mL of chloroform. The solution is evaporated, then residual solvent is removed in vacuum for more than 1 hr. […]
Human EDTA plasma samples from healthy men are purchased from New Drug Development Research Center, Inc. Donor solution is prepared by a dilution of donor microemulsion with assay buffer. […] Fluorescence intensities are measured every 30 min at 37° C. with excitation wave length of 485 nm and emission wavelength of 535 nm. The CETP activity (Fl/min) is defined as the changes of fluorescence intensity from 30 to 90 min.

pIC50: −log10 of the molar value.

This passage reports IC50 results from patent publication US20090286790A1, “ORGANIC COMPOUNDS” (priority 2006, published 2009).

Turning to `CC[C@@H]1C[C@H](N(Cc2cc(C(F)(F)F)cc(C(F)(F)F)c2)c2ncc(Br)cn2)C[C@H](Cc2ccccc2)N1C(=O)[C@H]1CC[C@@H](OC(C)=O)CC1` (relative stereo) [Example 17, acetic acid 4-{2-benzyl-4-[(3,5-bis-trifluoromethyl-benzyl)-(5-bromo-pyrimidin-2-yl)-amino]-6-ethyl-piperidine-1-carbonyl}-cyclohexyl Ester], the pIC50 was 6.50.
Under `CC[C@@H]1C[C@H](N(Cc2cc(C(F)(F)F)cc(C(F)(F)F)c2)c2ncc(Br)cn2)C[C@H](Cc2ccccc2)N1C(=O)[C@H]1CC[C@@H](O)CC1` (relative stereo) [Example 18, {2-benzyl-4-[(3,5-bis-trifluoromethyl-benzyl)-(5-bromo-pyrimidin-2-yl)-amino]-6-ethyl-piperidin-1-yl}-(4-hydroxy-cyclohexyl)-methanone] stands 6.45.
